The values below are quoted from earlier work in patent US7939561B2, “Blister packaging for acute pain regimens” (APR Applied Pharma Research s.a., priority 2006, dated 2011).

As for `O=C(O)Cc1ccccc1Nc1c(Cl)cccc1Cl` [diclofenac potassium], the “behaviour in an acidic environment” value was “tendency to precipitate”.
